According to publication PMC8070829, “Discovery of New Coumarin-Based Lead with Potential Anticancer, CDK4 Inhibition and Selective Radiotheranostic Effect: Synthesis, 2D & 3D QSAR, Molecular Dynamics, In Vitro Cytotoxicity, Radioiodination, and Biodistribution Studies” (Molecules, 2021):
Like-named read-outs stand apart in the source and are kept apart here.

Columns and labels:
CDK4 [1] = settings: cited from earlier work
MCF-7 cells = assay: In vitro cytotoxicity, MCF-7; assay type: cell-based; settings: Homo sapiens, MCF7, MCF-7 breast cancer cell line
Text: (§1) Mammalian cell lines: MCF-7 cells (human breast cancer) cell line, A-549 (human Lung Carcinoma) and CHO-K1 cells (hamster ovary cancer) cell line were obtained from the American Type Culture Collection (ATCC, Rockville, MD). Fetal bovine serum, RPMI-1640, HEPES buffer solution, L-glutamine, gentamycin and 0.25% Trypsin-EDTA were purchased from Lonza (Belgium). All reagents and chemicals were of pharmaceutical pure grade. Non-carrier added Na^131I solution (pH = 7) was purchased from the Research and Production Facility, The Egyptian Atomic Energy Authority. Chemicals were purchased from Sigma Aldrich and Lonza. Monitoring of chemical reactions was done by using analytical TLC with Merck 60 F-254 silica-gel plates (Merck, Germany), and visualization was done with ultraviolet light.
(§2) Cytotoxicity study was performed at the Regional Centre for Mycology and Biotechnology (RCMB), Al-Azhar University. Mammalian cell lines: human breast cancer cell line (MCF-7 cells), human colon cancer cell line (HCT-116 cells), and human lung cancer cell line (A-549 cells) were obtained from VACSERA Tissue Culture Unit, Cairo, Egypt. The cells were propagated in Dulbecco’s modified Eagle’s medium supplemented with 10% heat-inactivated fetal bovine serum, 1% L-glutamine, HEPES buffer, and 50 μg/mL gentamycin. All cells were maintained at 37 °C in a humidified atmosphere with 5% CO2 and were subcultured two times a week. For the cytotoxicity assay, the cells were seeded in 96-well plate at a cell concentration of 1 × 10^4 cells per well in 100 μL of growth medium. Fresh medium containing different concentrations of the test sample was added after 24 h of seeding. Serial two-fold dilutions of the tested chemical compound were added to confluent cell monolayers dispensed into 96-well, flat-bottomed microtiter plates (Falcon, NJ, USA) using a multichannel pipette. The microtiter plates were incubated at 37 °C in a humidified incubator with 5% CO2 for a period of 48 h. Three wells were used for each concentration of the test sample. Control cells were incubated without test sample and with or without DMSO. The little percentage of DMSO present in the wells (maximal 0.1%) was found not to affect the experiment. After incubation of the cells for at 37 °C, various concentrations of sample were added, and the incubation was continued for 24 h, and viable cells yield was determined by a colorimetric method. In brief, after the end of the incubation period, media were aspirated, and the crystal violet solution (1%) was added to each well for at least 30 min. The stain was removed, and the plates were rinsed using tap water until all excess stain is removed. Glacial acetic acid (30%) was then added to all wells and mixed thoroughly, and then the absorbance of the plates was measured after gently shaken on a microplate reader, using a test wavelength of 490 nm. All results were corrected for background absorbance detected in wells without added stain. Treated samples were compared with the cell control in the absence of the tested compound. All experiments were carried out in triplicate. The cell cytotoxic effect of each tested compound was calculated. The optical density was measured with the microplate reader to determine the number of viable cells, and the percentage of […] was calculated as (1 − (ODt/ODc)) × 100% where ODt is the mean optical density of wells treated with the tested sample and ODc is the mean optical density of untreated cells. The relation between surviving cells and drug concentration is plotted to get the survival curve of each tumor cell line after treatment with the specified compound.

A-549 cells = assay: In vitro cytotoxicity, A-549; assay type: cell-based; settings: Homo sapiens, A549; A-549 cell line
Text: as §1, §2

CHO-K1 cells = assay: In vitro cytotoxicity, CHO-K1; assay type: cell-based, hamster; settings: CHO-K1 ovarian cell line
Text: as §1, §2

CDK4 [2] = settings: cited from earlier work; remark: listed apart in the source
CDK6 = settings: cited from earlier work
CDK4 enzyme = molecular target: T1, CDK4 enzyme (Homo sapiens, UniProt P11802); assay: CDK4 enzyme inhibition assay; assay type: biochemical
T1 construct: purchased Reaction Biology Corp. (Kinase HotSpot service)
T1 sequence (P11802 whole entry): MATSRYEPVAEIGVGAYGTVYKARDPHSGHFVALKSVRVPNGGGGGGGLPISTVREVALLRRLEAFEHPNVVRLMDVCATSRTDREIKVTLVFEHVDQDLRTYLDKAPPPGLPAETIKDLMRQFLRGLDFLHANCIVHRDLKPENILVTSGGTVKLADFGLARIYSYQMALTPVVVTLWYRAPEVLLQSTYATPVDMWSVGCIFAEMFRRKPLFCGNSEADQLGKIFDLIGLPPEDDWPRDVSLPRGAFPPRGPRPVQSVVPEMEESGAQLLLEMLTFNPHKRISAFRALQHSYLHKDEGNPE
T1 sequence (P24385 whole entry partner): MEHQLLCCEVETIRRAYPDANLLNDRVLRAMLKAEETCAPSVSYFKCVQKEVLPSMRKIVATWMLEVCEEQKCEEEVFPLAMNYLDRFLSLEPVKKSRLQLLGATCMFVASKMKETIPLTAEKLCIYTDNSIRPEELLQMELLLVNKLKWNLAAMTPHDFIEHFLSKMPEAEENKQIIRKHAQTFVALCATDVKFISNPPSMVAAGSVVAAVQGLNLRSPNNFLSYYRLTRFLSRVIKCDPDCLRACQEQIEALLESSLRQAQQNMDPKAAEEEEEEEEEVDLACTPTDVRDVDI
Protocol: Reaction Biology Corp. Kinase HotSpotSM service (http://www.reactionbiology.com, accessed on 1 April 2019) was used for screening of tested compounds. CDK4 Kinase inhibitory activities were assessed by the HotSpot assay platform, which contained specific kinase/substrate pairs along with required cofactors. Base reaction buffer: 20 mM Hepes (pH 7.5), 10 mM MgCl2, 1 mM EGTA, 0.02% Brij35, 0.02 mg/mL BSA, 0.1 mM Na3VO4, 2 mM DTT, 1% DMSO. Testing compounds were dissolved in 100% DMSO to specific concentration. The serial dilution was conducted in DMSO. The reaction mixture containing the examined compound and 33P-ATP was incubated at room temperature for 2 h and radioactivity was detected by the filter-binding method. Kinase activity data were expressed as the percent remaining kinase activity in test samples compared to vehicle (dimethyl sulfoxide) reactions.
For CDK4 enzyme inhibition, CDK4 ELISA kit, Cloud-Clone Corp, US was used. This kit is used for the in vitro quantitative measurement of CDK4 concentrations in tissue homogenates, cell lysates and other biological fluids with high sensitivity and specificity. The cancer cells were treated with different amounts of each compound according to the aforementioned protocol. In addition, the cells were lysed and then treated as instructed by the manufacturer’s protocol. The absorbance of each well was detected at 450 nm using an ELISA plate reader. The results are reported as half maximal inhibitory concentration (IC50).

[3] = N-aryl aminothiazoles, in vitro

| melting point | Compound | IC50 (MCF-7 cells) | IC50 (A-549 cells) | IC50 (CHO-K1 cells) | other results |
| --- | --- | --- | --- | --- | --- |
| – | Cc1cc(-c2cnc(Nc3nccc(CN4CCN(C)CC4)n3)s2)nc(OC2CCCCC2)n1 [Vc] | – | – | – | IC50 (CDK4 [1]; 2-aminothiazoles of Banyu): 9.2 nM |
| – | CC(C)(C)c1cnc(CSc2cnc(Nc3ccc(S(=O)(=O)NCCO)cc3)s2)o1 [IX] | – | – | – | IC50 (CDK4 [1]; [3]): 233 nM |
| 278 °C | O=c1oc2ccc(Br)cc2cc1-c1csc(NN=Cc2ccc(F)cc2)n1 [Compound 9f] | 276 nM | 200 nM | 495 nM | – |
| 229 °C | C/C(=N\N=c1/scc(-c2ccc(Br)cc2)n1-c1ccccc1)c1cc2cc(Br)ccc2oc1=O [Compound 5b, 6-Bromo-3-(1-((4-(4-bromophenyl)-3-phenylthiazol-2(3H)-ylidene)hydrazono)ethyl)-2H-chromen-2-one] | 305 nM | 305 nM | 414 nM | – |
| – | CSc1nc(C)c(-c2ccnc(Nc3ccc(N4CCN(C)CC4)cn3)n2)s1 [VIIa] | – | – | – | Ki (CDK4 [2]): 7 nM; Ki (CDK6): 42 nM |
| – | CSc1nc(C)c(-c2nc(Nc3ccc(N4CCN(C)CC4)cn3)ncc2F)s1 [VIIc] | – | – | – | Ki (CDK4 [2]): 2 nM; Ki (CDK6): 55 nM |
| 200 °C | CC(=NN=c1scc(-c2ccccc2)n1C)c1cc2cc(Br)ccc2oc1=O [Compound 4a, 6-Bromo-3-(1-((3-methyl-4-phenylthiazol-2(3H)-ylidene)hydrazono)ethyl)-2H-chromen-2-one] | 360 nM | 537 nM | 757 nM | – |
| 280 °C | CC(=NN=C1SC(CC(=O)O)C(=O)N1C)c1cc2cc(Br)ccc2oc1=O (stereo not drawn) [Compound 6a, 2-(2-((1-(6-Bromo-2-oxo-2H-chromen-3-yl)ethylidene)hydrazono)-3-methyl-4-oxothiazolidin-5-yl)acetic acid] | 55 nM | 95 nM | 131 nM | – |
| 238 °C | COc1ccc(C=NNc2nc(-c3cc4cc(Br)ccc4oc3=O)cs2)cc1OC [Compound 9c] | 479 nM | 244 nM | 649 nM | – |
| – | CSc1nc(C)c(-c2nc(Nc3ccc(N4CCN(C)CC4)cn3)ncc2C#N)s1 [VIIb] | – | – | – | Ki (CDK4 [2]): 4 nM; Ki (CDK6): 30 nM |
| – | O=c1oc2ccc(Br)cc2cc1-c1csc(NN=Cc2ccc([N+](=O)[O-])cc2)n1 [Compound 9d] | 780 nM | 513 nM | 901 nM | – |
| 250 °C | Cc1ccc(C=NNc2nc(-c3cc4cc(Br)ccc4oc3=O)cs2)cc1 [Compound 9b] | 295 nM | 386 nM | 522 nM | – |
| – | Cc1ccc(C=NNc2nc(-c3cc4cc(Br)ccc4oc3=O)cs2)o1 [Compound 9h] | 534 nM | 340 nM | 574 nM | – |
| – | C/C(=N\NC(=S)Nc1ccccc1)c1cc2cc(Br)ccc2oc1=O [Compound 2b] | – | 15 nM | 54 nM | IC50 (CDK4 enzyme): 36 nM |
| 234 °C | CC(=NN=c1scc(-c2ccccc2)n1-c1ccccc1)c1cc2cc(Br)ccc2oc1=O [Compound 4b, 6-Bromo-3-(1-((3,4-diphenylthiazol-2(3H)-ylidene)hydrazono)ethyl)-2H-chromen-2-one] | 861 nM | 784 nM | 968 nM | – |
| 253 °C | CN(C)c1ccc(C=NNc2nc(-c3cc4cc(Br)ccc4oc3=O)cs2)cc1 [Compound 9e] | 432 nM | 242 nM | 507 nM | – |
| – | CC(C)(CO)CNCc1ccc(Nc2ncc(SCc3ncc(C(C)(C)C)o3)s2)nc1 [VIII] | – | – | – | IC50 (CDK4 [1]; [3]): 26 nM |
| – | c1cnc(Nc2ncc(-c3ccnc(OC4CCCCC4)n3)s2)nc1 [Va] | – | – | – | IC50 (CDK4 [1]; 2-aminothiazoles of Banyu): 4.2 nM |
| – | CC(=NN=C1SCC(=O)N1c1ccccc1)c1cc2cc(Br)ccc2oc1=O [Compound 3b] | 116 nM | 56 nM | 127 nM | IC50 (CDK4 enzyme): 127 nM |
| 250 to 252 °C | CC(=NN=C1SCC(=O)N1C)c1cc2cc(Br)ccc2oc1=O [Compound 3a] | 138 nM | 560 nM | 735 nM | – |
| – | Cc1cc(-c2cnc(Nc3ncccn3)s2)nc(OC2CCCCC2)n1 [Vb] | – | – | – | IC50 (CDK4 [1]; 2-aminothiazoles of Banyu): 34 nM |
| – | O=c1oc2ccc(Br)cc2cc1-c1csc(NN=Cc2ccc([N+](=O)[O-])o2)n1 [Compound 9i] | 124 nM | 75 nM | 189 nM | IC50 (CDK4 enzyme): 193 nM |
| – | O=c1oc2ccc(Br)cc2cc1-c1csc(N/N=C/c2ccccc2)n1 [Compound 9a] | 60 nM | 34 nM | 91 nM | IC50 (CDK4 enzyme): 131 nM |
| 251 °C | CC(=NN=C1SC(CC(=O)O)C(=O)N1c1ccccc1)c1cc2cc(Br)ccc2oc1=O (stereo not drawn) [Compound 6b, 2-(2-((1-(6-Bromo-2-oxo-2H-chromen-3-yl)ethylidene)hydrazono)-4-oxo-3-phenylthiazolidin-5-yl)acetic acid] | 55 nM | 77 nM | 101 nM | – |
| – | CN1CC[C@H](c2c(O)cc(O)c3c(=O)cc(-c4ccccc4Cl)oc23)[C@H](O)C1 [Flavopiridol, reference compound] | 4.45 nM | 1.14 nM | 2.41 nM | – |
| – | CC(=NN=c1scc(-c2ccc(Br)cc2)n1C)c1cc2cc(Br)ccc2oc1=O [Compound 5a, 6-Bromo-3-(1-((4-(4-bromophenyl)-3-methylthiazol-2(3H)-ylidene)hydrazono)ethyl)-2H-chromen-2-one] | 102 nM | 54 nM | 75 nM | IC50 (CDK4 enzyme): 142 nM |
| 220 °C | CNC(=S)NN=C(C)c1cc2cc(Br)ccc2oc1=O [Compound 2a] | 161 nM | 451 nM | 604 nM | – |
| 267 °C | O=c1oc2ccc(Br)cc2cc1-c1csc(NN=Cc2ccc(Br)cc2)n1 [Compound 9g] | 488 nM | 441 nM | 744 nM | – |
